Laboratory results taken from patent EP1401829B1, “NOVEL HETEROCYCLIC ANTIBACTERIAL COMPOUNDS” (Microbiotix, Inc., priority 2001, dated 2002).
Values after ≈ are worked out from the molar mass of the structure shown. Like-named read-outs stand apart in the source and are kept apart here.

How the values were obtained:
S. aureus = test: Minimal Inhibitory Concentration (MIC) determination, 96 well plates; format: cell-based, Staphylococcus aureus; conditions: Staphylococcus aureus, read-out: MIC (µg/ml) S. aureus
Method: (§1) The following methods were used to characterize representative compounds. Minimal Inhibitory Concentration (MIC) determinations. MIC values were determined in 96 well plates, with bacterial growth monitored at OD 600 nm in 200µl following an initial bacterial seeding at approximately 1x10^5 colony forming units (CFU)/ml. Each drug is evaluated at five concentrations, with five data points at each dilution. MIC values (µg/ml) were determined against actively growing cultures in Heart-Brain Infusion (HBI) medium. Cell growth in cultures supplemented with a test compound was calculated as a percent of control at OD 600 nm after 16 to 18 hours at 37°C. This plate format conserves test compound and provides precise, quantitative data with low standard deviation determinations. Polymerase IIIC (Pol IIIC) assay. DNA polymerase activity (or inhibition thereof) was measured in a 96-well plate format. B. subtilis Pol IIIC was isolated as described by Hammond and Brown (Protein Expr. Purif., 3: 65-70 (1992)). Each 25 µl assay contained 30 mM Tris, pH 7.5, 10 mM magnesium acetate, 4 mM dithiothreitol, 20% glycerol, with 25 µM dATP, dCTP, dGTP and 10 µM dTTP (^3H-labelled at 1.44 Ci/mmole) and 0.4 mg/ml activated calf thymus DNA as substrates, as described previously (see Barnes et al, op. cit). Assays were initiated by the addition of 0.025 to 0.06 units of enzyme 1 unit is the amount required to incorporate 250 pmoles of [^3H] dTMP in a standard assay), incubated for 10 minutes at 30°C and terminated by the addition of 200 µl of cold 10% trichloroacetic acid (TCA),10 mM sodium pyrophosphate. Precipitated labeled DNA was collected on glass fiber filter plates, washed, dried, and counted in a liquid scintillation counter. Determination of Ki values. DNA polymerase activity was measured in a 96-well plate format in the absence of dGTP or dATP, depending on the structure of the test compound. Each 25 µl assay contained 30 mM Tris, pH 7.5, 10 mM magnesium acetate, 4 mM dithiothreitol, 20% glycerol, with 25 µM dATP, dCTP, and 10 µM dTTP (^3H-labelled at 1.44 Ci/mmole) and 0.4 mg/ml activated calf thymus DNA as substrates, as described previously. To each well were added 2 µl of compound solution to give final concentrations ranging from 20 - 0.027 µg/ml in the assay. Assays were initiated by the addition of 0.025 to 0.06 units of enzyme (1 unit is the amount required to incorporate 250 pmoles of [^3H] dTMP in a standard assay), incubated for 10 minutes at 30 °C and terminated by the addition of 200 µl of cold 10% trichloroacetic acid, 10 mM sodium pyrophosphate. Precipitated labeled DNA was collected on glass fiber filter plates, washed, dried, and counted in a liquid scintillation counter. Ki is the concentration of test compound that reduces the control polymerase IIIC activity by 50 percent.
(§2) MIC values were determined for the Gram positive bacteria Bacillus subtilis, Staphylococcus aureus (two strains), Enterococcus fecalis, Enterococcus fecium, and for the Gram negative bacterium Escherichia coli.

E. fecalis = test: as above; format: cell-based, Enterococcus fecalis; conditions: Enterococcus, read-out: MIC (µg/ml) E. fecalis
Method: as §1, with “This plate format conserves test compound and provides precise, quantitative data with low standard deviation determinations.” left out, “To each well were added 2 µl of compound solution to give final concentrations ranging from 20 - 0.027 µg/ml in the assay.” left out
as §2

E. coli = test: as above; format: cell-based, Escherichia coli; conditions: Escherichia coli, read-out: MIC (µg/ml) E. coli
Method: as §1, §2

B. subtilis Pol IIIC = target: T1, B. subtilis Pol IIIC (Bacillus subtilis, UniProt P13267); test: Polymerase IIIC (Pol IIIC) assay, determination of Ki values; format: biochemical; conditions: Ki (µM) Pol IIIC, assay in absence of dGTP or dATP; Ki is the concentration that reduces control polymerase IIIC activity by 50 percent
T1 construct: made in house
T1 sequence (P13267 whole entry): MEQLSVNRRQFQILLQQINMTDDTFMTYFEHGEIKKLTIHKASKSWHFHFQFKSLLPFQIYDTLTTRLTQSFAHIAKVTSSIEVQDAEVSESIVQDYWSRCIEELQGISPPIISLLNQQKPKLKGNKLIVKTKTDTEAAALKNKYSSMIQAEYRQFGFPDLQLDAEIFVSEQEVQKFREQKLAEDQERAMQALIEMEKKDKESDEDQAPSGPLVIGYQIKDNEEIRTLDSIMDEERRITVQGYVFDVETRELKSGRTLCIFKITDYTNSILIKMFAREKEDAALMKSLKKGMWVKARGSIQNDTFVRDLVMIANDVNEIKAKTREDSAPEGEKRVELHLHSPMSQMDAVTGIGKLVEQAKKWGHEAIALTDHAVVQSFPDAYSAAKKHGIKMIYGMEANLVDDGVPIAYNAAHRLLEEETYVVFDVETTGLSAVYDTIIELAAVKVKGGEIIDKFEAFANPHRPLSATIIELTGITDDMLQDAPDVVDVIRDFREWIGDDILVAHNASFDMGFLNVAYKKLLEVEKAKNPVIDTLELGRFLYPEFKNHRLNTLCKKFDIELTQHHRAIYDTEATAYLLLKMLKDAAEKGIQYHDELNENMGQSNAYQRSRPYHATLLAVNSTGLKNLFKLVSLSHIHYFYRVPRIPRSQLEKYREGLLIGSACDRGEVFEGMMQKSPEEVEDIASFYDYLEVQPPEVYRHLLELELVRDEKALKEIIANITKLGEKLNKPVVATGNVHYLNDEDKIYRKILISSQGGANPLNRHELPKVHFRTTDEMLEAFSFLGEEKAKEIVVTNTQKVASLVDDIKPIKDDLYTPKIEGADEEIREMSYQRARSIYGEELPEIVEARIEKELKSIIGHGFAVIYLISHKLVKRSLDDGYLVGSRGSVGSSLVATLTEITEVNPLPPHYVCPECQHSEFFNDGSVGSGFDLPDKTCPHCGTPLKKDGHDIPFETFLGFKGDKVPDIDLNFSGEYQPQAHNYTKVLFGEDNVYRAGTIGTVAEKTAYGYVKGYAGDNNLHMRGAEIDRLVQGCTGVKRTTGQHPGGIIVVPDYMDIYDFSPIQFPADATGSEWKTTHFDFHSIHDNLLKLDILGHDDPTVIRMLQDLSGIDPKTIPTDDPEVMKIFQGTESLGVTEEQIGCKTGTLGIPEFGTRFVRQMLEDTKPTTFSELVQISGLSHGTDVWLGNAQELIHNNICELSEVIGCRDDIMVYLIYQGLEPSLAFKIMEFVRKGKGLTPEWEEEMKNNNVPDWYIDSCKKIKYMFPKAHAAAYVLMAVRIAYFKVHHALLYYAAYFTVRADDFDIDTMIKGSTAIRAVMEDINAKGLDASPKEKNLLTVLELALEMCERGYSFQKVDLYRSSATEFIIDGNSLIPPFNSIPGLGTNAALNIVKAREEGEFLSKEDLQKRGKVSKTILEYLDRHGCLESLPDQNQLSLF
Method: as §1, with “This plate format conserves test compound and provides precise, quantitative data with low standard deviation determinations.” left out, “To each well were added 2 µl of compound solution to give final concentrations ranging from 20 - 0.027 µg/ml in the assay.” left out

B. subtilis = test: Minimal Inhibitory Concentration (MIC) determination, 96 well plates; format: cell-based, Bacillus subtilis; conditions: Bacillus subtilis, read-out: MIC (µg/ml) B. subtilis
Method: as §1, with “This plate format conserves test compound and provides precise, quantitative data with low standard deviation determinations.” left out, “To each well were added 2 µl of compound solution to give final concentrations ranging from 20 - 0.027 µg/ml in the assay.” left out
as §2

S.aureus (Smith) = test: as above; format: cell-based, Staphylococcus aureus; conditions: Staphylococcus aureus, read-out: MIC (µg/ml) S.aureus (Smith)
Method: as §1, with “This plate format conserves test compound and provides precise, quantitative data with low standard deviation determinations.” left out, “To each well were added 2 µl of compound solution to give final concentrations ranging from 20 - 0.027 µg/ml in the assay.” left out
as §2

E. fecium = test: as above; format: cell-based, Enterococcus fecium; conditions: Enterococcus, read-out: MIC (µg/ml) E. fecium
Method: as §1, with “This plate format conserves test compound and provides precise, quantitative data with low standard deviation determinations.” left out, “To each well were added 2 µl of compound solution to give final concentrations ranging from 20 - 0.027 µg/ml in the assay.” left out
as §2

[1] = HBI medium, 16 to 18 hours at 37°C

SMILES	MIC (S. aureus; [1]) [µg/mL]	MIC (E. fecalis; [1]) [µg/mL]	MIC (E. coli) [µg/mL]	Ki (B. subtilis Pol IIIC) [µM]	MIC (B. subtilis; [1]) [µg/mL]	MIC (S.aureus (Smith); [1]) [µg/mL]	MIC (E. fecium; [1]) [µg/mL]	MIC (E. coli; [1]) [µg/mL]	MIC (S. aureus) [µg/mL]	MIC (E. fecalis) [µg/mL]	MIC (B. subtilis) [µg/mL]	MIC (S.aureus (Smith)) [µg/mL]	MIC (E. fecium) [µg/mL]
CCc1cc(Nc2cc(=O)n(CCCCCN3CCCC4CN(c5cc6c(cc5F)c(=O)c(C(=O)O)cn6CC)CC43)c(=O)[nH]2)ccc1C (stereo not drawn) [Compound 80, 3-{5-[1-(1-ethyl-3-carboxy-4-oxo-6-fluoro-7-quinolyl)-3-(1,3-diazabicyclononyl)]pentyl}-6-(3-ethyl-4-methylanilino)uracil]	7.5 (≈ 11.1 µM)	12.5 (≈ 18.6 µM)	0.8 (≈ 1.19 µM)	0.037	2.5 (≈ 3.72 µM)	5 (≈ 7.43 µM)	20 (≈ 29.7 µM)	–	–	–	–	–	–
Cc1ccc(Nc2cc(=O)n(CCCCN3CCN(c4c(F)cc5c(=O)c(C(=O)O)cn(C6CC6)c5c4F)CC3C)c(=O)[nH]2)cc1C (stereo not drawn) [Compound 94, 3-{4-[1-(1-cyclopropyl-3-carboxy-4-oxo-6,8-difluoro-7-quinolyl)-3-methyl-4-piperazinyl]butyl}-6-(3,4-dimethylanilino)uracil]	0.625 (≈ 0.963 µM)	1.25 (≈ 1.93 µM)	–	0.026	0.156 (≈ 0.24 µM)	0.313 (≈ 0.482 µM)	2.5 (≈ 3.85 µM)	2.5 (≈ 3.85 µM)	–	–	–	–	–
CCc1cc(Nc2cc(=O)n(CCCCN3CCN(c4cc5c(cc4F)c(=O)c(C(=O)O)cn5C4CC4)C(C)C3)c(=O)[nH]2)ccc1C (stereo not drawn) [Compound 69, 3-{4-[1-(1-cyclopropyl-3-carboxy-4-oxo-6-fluoro-7-quinolyl)-2-methyl-4-piperazinyl]butyl}-6-(3-ethyl-4-methylanilino)uracil]	0.625 (≈ 0.969 µM)	0.95 (≈ 1.47 µM)	–	0.026	0.23 (≈ 0.357 µM)	0.46 (≈ 0.713 µM)	1.25 (≈ 1.94 µM)	30 (≈ 46.5 µM)	–	–	–	–	–
CCc1cc(Nc2cc(=O)n(CCCCCN3CC4CN(c5cc6c(cc5F)c(=O)c(C(=O)O)cn6C5CC5)CC4C3)c(=O)[nH]2)ccc1C (stereo not drawn) [Compound 86, 3-{5-[1-(1-cyclopropyl-3-carboxy-4-oxo-6-fluoro-7-quinolyl)-4-(1,4-diazabicyclooctyl)]pentyl}-6-(3-ethyl-4-methylanilino)uracil]	5 (≈ 7.45 µM)	10 (≈ 14.9 µM)	–	0.054	2.5 (≈ 3.73 µM)	2.5 (≈ 3.73 µM)	40 (≈ 59.6 µM)	> 80	–	–	–	–	–
CCc1cc(Nc2cc(=O)n(CCCCN3CCN(c4cc5c(cc4F)c(=O)c(C(=O)O)cn5-c4ccc(F)cc4F)C[C@H]3C)c(=O)[nH]2)ccc1C [Compound 90, (R)-3-{4-[1-(1-{2,4-difluorophenyl}-3-carboxy-4-oxo-6-fluoro-7-quinolyl)-3-methyl-4-piperazinyl]butyl}-6-(3-ethyl-4-methylanilino)uracil]	0.625 (≈ 0.872 µM)	1.25 (≈ 1.74 µM)	–	0.017	0.236 (≈ 0.329 µM)	0.313 (≈ 0.437 µM)	1.25 (≈ 1.74 µM)	> 40	–	–	–	–	–
CCc1cc(Nc2cc(=O)n(CCCCCN3CCCC4CN(c5cc6c(cc5F)c(=O)c(C(=O)O)cn6C5CC5)CC43)c(=O)[nH]2)ccc1C (stereo not drawn) [Compound 82, 3-{5-[1-(1-cyclopropyl-3-carboxy-4-oxo-6-fluoro-7-quinolyl)-3-(1,3-diazabicyclononyl)]pentyl}-6-(3-ethyl-4-methylanilino)uracil]	2.5 (≈ 3.65 µM)	20 (≈ 29.2 µM)	–	0.041	1.25 (≈ 1.83 µM)	1.25 (≈ 1.83 µM)	> 80	> 80	–	–	–	–	–
O=C(O)c1cn(C2CC2)c2cc(N3CCN(CCCCn4c(=O)cc(Nc5ccc6c(c5)CCC6)[nH]c4=O)CC3)c(F)cc2c1=O [Compound 67, 3-{4-[1-(1-cyclopropyl-3-carboxy-4-oxo-6-fluoro-7-quinolyl)-4-piperazinyl]butyl}-6-(5-indanylamino)uracil]	0.625 (≈ 0.994 µM)	1.25 (≈ 1.99 µM)	–	0.034	0.23 (≈ 0.366 µM)	0.313 (≈ 0.498 µM)	2.5 (≈ 3.98 µM)	10 (≈ 15.9 µM)	–	–	–	–	–
CCc1cc(Nc2cc(=O)n(CCCCCNC3CCN(c4cc5c(cc4F)c(=O)c(C(=O)O)cn5C4CC4)C3)c(=O)[nH]2)ccc1C (stereo not drawn) [Compound 83, 3-{5-[1-(1-cyclopropyl-3-carboxy-4-oxo-6-fluoro-7-quinolyl)-3-(pyrrolidinylamino)]pentyl}-6-(3-ethyl-4-methylanilino)uracil]	20 (≈ 31 µM)	5 (≈ 7.75 µM)	–	0.041	3.7 (≈ 5.74 µM)	5 (≈ 7.75 µM)	40 (≈ 62 µM)	> 80	–	–	–	–	–
CCc1cc(Nc2cc(=O)n(CCCCN3CCOC4CN(c5cc6c(cc5F)c(=O)c(C(=O)O)cn6C5CC5)CC43)c(=O)[nH]2)ccc1C (stereo not drawn) [Compound 87, 3-{4-[1-(1-cyclopropyl-3-carboxy-4-oxo-6-fluoro-7-quinolyl)-3-(5-oxa-1,3-diazabicyclononyl)]butyl}-6-(3-ethyl-4-methylanilino)uracil]	1.87 (≈ 2.78 µM)	2.5 (≈ 3.72 µM)	–	0.088	0.313 (≈ 0.465 µM)	0.625 (≈ 0.929 µM)	7.5 (≈ 11.1 µM)	> 40	–	–	–	–	–
CCc1cc(Nc2ccc(NC(=O)N3CCN(c4cc5c(cc4F)c(=O)c(C(=O)O)cn5CC)CC3)c(=O)[nH]2)ccc1C [Compound 77, 3-{[1-(1-ethyl-3-carboxy-4-oxo-6-fluoro-7-quinolyl)-4-piperazinyl]carboxamido}-6-(3-ethyl-4-methylanilino)-2-pyridone]	–	–	–	–	–	–	–	> 80	2.5 (≈ 4.25 µM)	> 80	5 (≈ 8.49 µM)	2.5 (≈ 4.25 µM)	> 80
